How the values were obtained:
Type in all cases: in vivo
[1] = system: Matricaria inodora; assay: Post-emergence herbicidal action, MATIN; parameters: key: % herbicidal action vs untreated; 100 = plants died, 0 = like control
In short: (§1)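 Percent herbicidal effect was judged by eye against untreated controls around 3 weeks after foliar treatment, where 100% meant dead plants. Spraying took place at the one-leaf stage using wettable powder or emulsion concentrate diluted in water (600 to 800 l/ha) with added wetting agent at 0.2%.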

[2] = system: Pharbitis purpurea; assay: Post-emergence herbicidal action, PHBPU
In short: as §1

[3] = system: Amaranthus retroflexus; assay: Post-emergence herbicidal action, AMARE; parameters: key: % herbicidal action vs untreated; 100 = plants died, 0 = like control
In short: as §1

[4] = system: Amaranthus retroflexus; assay: Pre-emergence herbicidal action, AMARE; conditions: dosage 320 g/ha, scored visually after 3 weeks vs untreated controls (100% = plants have died)
In short: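 Visual scoring after 3 weeks in the greenhouse, relative to untreated pots, gave percent activity, where 100% means dead plants and 0% equals controls. Treatment was a pre-emergence soil-surface spray of WP or EC formulations in water (600 to 800 l/ha, 0.2% wetting agent) over seeds covered in sandy loam.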

[5] = system: Abutilon theophrasti; assay: Post-emergence herbicidal action, ABUTH; parameters: key: % herbicidal action vs untreated; 100 = plants died, 0 = like control
In short: as §1

[6] = system: Echinochloa crus-galli; assay: Post-emergence herbicidal action, ECHCG; parameters: key: % herbicidal action vs untreated; 100 = plants died, 0 = like control
In short: as §1

SMILES | herbicidal action MATIN ([1]; Dosage 80 g/ha) | herbicidal action PHBPU ([2]; Dosage 80 g/ha) | herbicidal action AMARE ([3]; Dosage 80 g/ha) | herbicidal activity AMARE [4] | herbicidal action ABUTH ([5]; Dosage 80 g/ha) | herbicidal action ECHCG ([6]; Dosage 80 g/ha) | herbicidal action MATIN ([1]; post-emergence, dosage 80 g/ha) | herbicidal action PHBPU ([2]; post-emergence, dosage 80 g/ha) | herbicidal action AMARE ([3]; post-emergence, dosage 80 g/ha) | herbicidal action ABUTH ([5]; post-emergence, dosage 80 g/ha) | herbicidal action ECHCG ([6]; post-emergence, dosage 80 g/ha)
CCn1nnnc1NC(=O)c1ccc(C(F)(F)F)c(C[S+](C)[O-])c1OC (stereo not drawn) [Example 2-135] | 100 | 100 | 100 | 100% | 100 | 100 | – | – | – | – | –
CCn1nnnc1NC(=O)c1ccc(C(F)(F)F)c(CS(C)(=O)=O)c1OC [Example 2-136] | 100 | 90 | 100 | 100% | 100 | 100 | – | – | – | – | –
CCn1nnnc1NC(=O)c1ccc(C(F)(F)F)c(CSC)c1SC [Example 2-161] | – | – | – | 100% | – | – | 100% | 90% | 100% | 90% | 90%
CCn1nnnc1NC(=O)c1ccc(C(F)(F)F)c(CS(C)(=O)=O)c1SC [Example 2-163] | 100 | 90 | 100 | 100% | 100 | 100 | – | – | – | – | –
CCn1nnnc1NC(=O)c1ccc(C)c(CSC)c1Cl [Example 2-287] | 100 | 90 | 90 | 100% | 80 | 100 | – | – | – | – | –
CCn1nnnc1NC(=O)c1ccc(C(F)(F)F)c(CSC)c1Br [Example 2-380] | – | – | – | 100% | – | – | 100% | 90% | 80% | 80% | 90%
CCn1nnnc1NC(=O)c1ccc(C(F)(F)F)c(C[S+](C)[O-])c1Br (stereo not drawn) [Example 2-381] | – | – | – | 100% | – | – | 90% | 100% | 90% | 90% | 90%
CCn1nnnc1NC(=O)c1ccc(C(F)(F)F)c(CS(C)(=O)=O)c1Br [Example 2-382] | 100 | 100 | 90 | 100% | 100 | 90 | – | – | – | – | –
CCSCc1c(C(F)(F)F)ccc(C(=O)Nc2nnnn2CC)c1Br [Example 2-383] | – | – | – | 100% | – | – | 100% | 90% | 100% | 100% | 90%
CCCn1nnnc1NC(=O)c1ccc(C(F)(F)F)c(CS(=O)(=O)CC)c1C [Example 3-88] | 90 | 90 | 80 | 100% | 80 | 90 | – | – | – | – | –
CCCn1nnnc1NC(=O)c1ccc(C(F)F)c(CSC)c1C [Example 3-107] | 90 | 80 | 90 | 100% | 80 | 90 | – | – | – | – | –
CCCn1nnnc1NC(=O)c1ccc(C(F)(F)F)c(CSC)c1OC [Example 3-134] | 100 | 100 | 100 | 100% | 100 | 100 | – | – | – | – | –
CCCn1nnnc1NC(=O)c1ccc(C(F)(F)F)c(CSC)c1Cl [Example 3-296] | 100 | 90 | 100 | 100% | 100 | 100 | – | – | – | – | –
CCCn1nnnc1NC(=O)c1ccc(C(F)(F)F)c(C[S+](C)[O-])c1Cl (stereo not drawn) [Example 3-297] | – | – | – | 100% | – | – | 100% | 90% | 100% | 80% | 80%
CCCn1nnnc1NC(=O)c1ccc(C(F)(F)F)c(CSCC)c1Cl [Example 3-299] | 100 | 90 | 90 | 100% | 90 | 90 | – | – | – | – | –

Source: patent US12492173B2, “Herbicidal substituted N-tetrazolyl aryl carboxamides” (Bayer Aktiengesellschaft, priority 2019, dated 2025)
